Among the data in patent US7888380B2, “1,2,4-Triazolylaminoaryl (heteroaryl) sulfonamide derivatives” (Janssen Pharmaceutica, N.V., priority 2004, dated 2011) are bioavailability, Cmax and IC50 values, retold here.

By bioavailability is commonly meant dose-corrected exposure relative to a reference, in per cent. A lower bioavailability goes with poor availability. Usually Cmax stands for the highest concentration seen after dosing. In general, IC50 refers to the concentration that inhibits the measured activity by half. Low values mean inhibition by little substance, high ones a need for much substance.

The nature of data set [1]: Standard Rat Pharmacokinetics (PK). The note with it: for bioavailability: plasma, rat, Dose(IV)*AUC(oral)/Dose(oral)*AUC(IV); for Cmax: rat plasma. The class given is in vivo. The method, then:
The conversion of prodrug to active form was evaluated using a standard rat PK protocol. The following procedure may be followed.
Rats were dosed intravenously (IV) at the level of 1.5-3 mg/kg and by oral gavage (PO) at the level of 10-30 mg/kg with prodrug candidate. For each study, four rats were used for IV dosing and four rats were used for PO dosing. Prodrug was typically formulated for IV dosing as a solution in 10% W/V solutol in 5% dextrose in sterile water vehicle (D5W). Prodrug was typically formulated for oral dosing as a uniform suspension in 0.5% methylcellulose vehicle. Blood samples (0.5 mL) were collected into heparinized tubes post dose via orbital sinus puncture. For IV dosing, blood samples were collected at 5, 15 and 30 mins, 1, 2, 4, 6, 8, and 24 hrs after the dosing. For PO dosing, blood samples were collected at 30 mins, 1, 2, 4, 6, 8 and 24 hrs. Blood samples were centrifuged for cell removal, and precisely 200 μL of plasma supernatant was then transferred to a clean vial, placed on dry ice, and subsequently stored in a −70° C. freezer prior to analysis. Results were calculated by WinNonlin Pro version 3.1. Plasma levels were determined and the oral and intravenous area under the concentration vs. time curve (AUC) were compared to determine the % bioavailability (% F) by the following formula: Dose(IV)*AUC(oral)/Dose (oral)*AUC(IV).

For data set [2], the system named is A375 malignant melanoma. As to the kind of experiment: Inhibition of cell proliferation (14C-thymidine incorporation), A375. The class given is cell-based, human. The note with it: Homo sapiens, A-375. The method, then: The ability of a test compound to inhibit the proliferation of cell growth was determined by measuring incorporation of ^14C-labelled thymidine into newly synthesized DNA within the cells. This method was used on cell lines derived from carcinomas originating from several tissues such as HeLa cervical adenocarcinoma (American Type Culture Collection (ATCC), Virginia, Cat. #CCL-2), A375 malignant melanoma (ATCC CRL-1619), and HCT-116 colon carcinoma (CCL-247). In this way the effect of a compound on cell growth of cells with many different phenotypes can be determined. Cells were trypsinized and counted and 3000-8000 cells were added to each well of a 96-well CytoStar tissue culture treated scintillating microplate (Amersham #RPNQ0160) in complete medium in a volume of 100 μl. Cells were incubated for 24 hours in complete medium at 37° C. in an atmosphere containing 5% CO2.
Next, 1 μl of test compound in 100% DMSO was added to the wells of the plate. DMSO only was added to control wells. Cells were incubated for 24 more hours in complete medium at 37° C. in an atmosphere containing 5% CO2. Methyl ^14C-thymidine 56 mCi/mmol (NEN #NEC568 or Amersham #CFA532) was diluted in complete medium and 0.2 uCi/well was added to each well of the CytoStar plate in a volume of 20 ul. The plate was incubated for 24 hours at 37° C. plus 5% CO2 in drug plus ^14C-thymidine. The contents of the plate were discarded into a ^14C radioactive waste container by inverting the plate and the plate was washed twice with 200 μl PBS.
200 μl of PBS was added to each well. The top of the plate was sealed with a transparent plate sealer and a white plate backing sealer (Packard #6005199) was applied to the bottom of the plate. The degree of methyl ^14C-thymidine incorporation was quantified on a Packard Top Count.

Data set [3] has as its target CDK2:Cyclin-E (Homo sapiens, UniProt P24941). As to the kind of experiment: CDK2 Screening Assay (33P-ATP FlashPlate). The class given is biochemical. Particulars: 10 μM ATP; >10 or >100 = less than 50% inhibition at highest concentration tested. The procedure: A kinase reaction mixture was prepared containing 50 mM Tris-HCl pH=8, 10 mM MgCl2, 0.1 mM Na3PO4, 1 mM DTT, 10 μM ATP, 0.025 μM biotinylated histone-H1 peptide substrate and 0.2 μCuries per well ^33P-γ-ATP (2000-3000 Ci/mmol). 70 μL of the kinase reaction mixture was dispensed into the well of a streptavidin coated FlashPlate™ (Cat. # SMP103, NEN, Boston, Mass.). Then 1 μL of test compound stock in 100% DMSO was added to the wells resulting in a final concentration of 1% DMSO in the reaction with a 100 μl final reaction volume. Next, CDK2:Cyclin-E protein was diluted in 50 mM Tris-HCl pH=8.0, 0.1% BSA at a concentration of 1 ng per μL and 30 μL (30 ng enzyme per test well) was added to each well to initiate the reaction. The reaction was incubated for one hour at 30° C. At the end of the 1 h incubation, the reaction was terminated by aspirating the mixture from the plate and washing the wells twice with PBS containing 100 mM EDTA. The histone-H1 biotinylated peptide substrate became immobilized on the Flashplate™ and the incorporation of ^33P-γ-ATP was measured by reading the plate on a scintillation counter. Inhibition of the enzymatic activity of CDK2 was measured by observing a reduced amount of ^33P-γ-ATP incorporated into the immobilized peptide. […]

The mark [4] stands for this setting: IV 2 mg/kg of prodrug, read-out: Prodrug Cmax (μM) IV.
Setting [5] is: PO 10 mg/kg of prodrug, read-out: Prodrug Cmax (μM) PO.
The mark [6] stands for this setting: IV 3 mg/kg of prodrug, read-out: Prodrug Cmax (μM) IV.
Where [7] appears, read: PO 30 mg/kg of prodrug, read-out: Prodrug Cmax (μM) PO.

Structures are written as SMILES. Where two headings read alike, the source gives them in different places.

`C[C@@H](N)C(=O)NS(=O)(=O)c1ccc(Nc2nc(N)n(C(=O)c3c(F)cccc3F)n2)cc1` [Compound 14, 4-[5-amino-1-(2,6-difluoro-benzoyl)-1H-[1,2,4]triazol-3-ylamino]-N—((R)-2-amino-propionyl)-benzenesulfonamide] displayed a bioavailability in data set [1] (IV/PO 2/10 mg/kg) of 1%. Besides, the peak concentration (Cmax) worked out at 11 µM in data set [1] (setting [4]) and 0.08 µM in data set [1] (setting [5]). Moreover, the IC50 in data set [2] turned out to be 71.1 µM; in data set [3] it was 0.06 µM.
The compound `C[C@H](N)C(=O)N[C@@H](C)C(=O)NS(=O)(=O)c1ccc(Nc2nc(N)n(C(=O)c3c(F)cccc3F)n2)cc1.O=C(O)C(F)(F)F.O=C(O)C(F)(F)F.O=C(O)C(F)(F)F` [Compound 15, (S)-2-amino-N—((S)-2-{4-[5-amino-1-(2,6-difluoro-benzoyl)-1H-[1,2,4]triazol-3-ylamino]-benzenesulfonylamino}-1-methyl-2-oxo-ethyl)-propionamide 3 TFA salt] returned a bioavailability in data set [1] (IV/PO 2/10 mg/kg) of 0%. The highest concentration (Cmax) in data set [1] (setting [4]) came out at 31.8 µM; in data set [1] (setting [5]), 0.167 µM. The IC50 in data set [2] was found to be 12.1 µM; in data set [3], 0.1 µM.
In data set [1] (IV/PO 2/10 mg/kg), `Nc1nc(Nc2ccc(S(=O)(=O)NC(=O)[C@@H]3CCCN3)cc2)nn1C(=O)c1c(F)cccc1F` [Compound 16, 4-[5-amino-1-(2,6-difluoro-benzoyl)-1H-[1,2,4]triazol-3-ylamino]-N—((S)-pyrrolidine-2-carbonyl)-benzenesulfonamide] displayed a bioavailability of 0%. Moreover, the Cmax in data set [1] (setting [4]) was 1.8 µM. Further, the IC50 in data set [2] is 26.8 µM; in data set [3], 0.03 µM.
Consider `Nc1nc(Nc2ccc(S(=O)(=O)NC(=O)[C@@H](N)CC(=O)O)cc2)nn1C(=O)c1c(F)cccc1F` [Compound 17, (S)-3-amino-4-{4-[5-amino-1-(2,6-difluoro-benzoyl)-1H-[1,2,4]triazol-3-ylamino]-benzenesulfonylamino}-4-oxo-butyric acid], for which the bioavailability in data set [1] (IV/PO 2/10 mg/kg) was determined as 0%. The maximum concentration (Cmax) was found to be 18.3 µM in data set [1] (setting [4]) and 0.1 µM in data set [1] (setting [5]). In addition, the IC50 in data set [2] was > 100 µM; in data set [3] it was 0.09 µM.
In turn, `CCCCC(=O)NS(=O)(=O)c1ccc(Nc2nc(N)n(C(=O)c3c(F)cccc3F)n2)cc1` [Compound 18, 4-[5-amino-1-(2,6-difluoro-benzoyl)-1H-[1,2,4]triazol-3-ylamino]-N-pentanoyl-benzenesulfonamide] returned a bioavailability in data set [1] (IV/PO 3/30 mg/kg) of 0.4%. Moreover, the values for the highest concentration (Cmax) in data set [1] (setting [6]) and in data set [1] (setting [7]) were 134 µM and 0.41 µM, respectively. Besides, the IC50 in data set [2] is > 100 µM; in data set [3], 0.47 µM.
The matching figures for `CCCC(=O)NS(=O)(=O)c1ccc(Nc2nc(N)n(C(=O)c3c(F)cccc3F)n2)cc1` [Compound 19, 4-[5-amino-1-(2,6-difluoro-benzoyl)-1H-[1,2,4]triazol-3-ylamino]-N-butyryl-benzenesulfonamide]: 0.41%, 127 µM, 0.27 µM, 24.1 µM and 0.05 µM.
